Our source for the IC50 values is patent US12319655B2, “RAF kinase inhibitors and methods of use thereof” (Deciphera Pharmaceuticals, LLC, priority 2021, dated 2025).

The IC50 is the concentration that inhibits the measured activity by half.

The target in assay [1] is C-Raf kinase (SEQ. ID NO: 3) (Homo sapiens (Human), UniProt P04049, Y340D/Y341D). The assay can be described thus: Biochemical Assay for C-Raf (1). Particulars: Table J, assay version (1); read-out: CRAF (1) IC50. Summed up:
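Coupled pyruvate kinase/LDH assay tracking NADH oxidation at 340 nm, with 0.43 nM C-Raf, 30.1 nM MEK and 1 mM ATP in pH 7.5 Tris buffer (15 mM MgCl2, 1% DMSO final). Read continuously for 6 h at 30 °C, rate taken from the 4–5 h window. IC50 from four-parameter fit of percent inhibition.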

The target of assay [2] is B-Raf kinase (SEQ. ID NO: 2) (Homo sapiens (Human), UniProt P15056). The assay can be described thus: Biochemical Assay for B-Raf (1). The conditions noted are these: Table J, assay version (1); read-out: BRAF (1) IC50. Summed up:
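Continuous PK/LDH-coupled NADH oxidation assay, A340 read for 6 h at 30° C., with 0.13 nM B-Raf, 30.1 nM MEK substrate and 1 mM ATP in Tris pH 7.5, MgCl2, DTT, detergents, 1% DMSO. Rate taken from 4–5 h window; percent inhibition vs no-compound and known-inhibitor controls; four-parameter fit gives IC50.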

A further assay deals with WM3928 cells. The assay can be described thus: WM3928 Cell Proliferation Assay (1). Type of assay: cell-based. The method, boiled down: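 IC50 was derived from resazurin fluorescence (ex 540, em 600 nm) after a 6–7 h dye incubation. Before that, cells had 67–72 h of compound exposure at 37 °C, 5% CO2.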
The next assay concerns A375 cells. The experiment in a line: A375 Cell Proliferation Assay (1). Type of assay: cell-based. The conditions noted are these: Homo sapiens, A-375. Summed up: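 Resazurin fluorescence (excitation 540 nm, emission 600 nm, after a further 5-6 h) gave IC50s from triplicate compound dilution series.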

Chain of B-Raf kinase (SEQ. ID NO: 2) (P15056 416-766): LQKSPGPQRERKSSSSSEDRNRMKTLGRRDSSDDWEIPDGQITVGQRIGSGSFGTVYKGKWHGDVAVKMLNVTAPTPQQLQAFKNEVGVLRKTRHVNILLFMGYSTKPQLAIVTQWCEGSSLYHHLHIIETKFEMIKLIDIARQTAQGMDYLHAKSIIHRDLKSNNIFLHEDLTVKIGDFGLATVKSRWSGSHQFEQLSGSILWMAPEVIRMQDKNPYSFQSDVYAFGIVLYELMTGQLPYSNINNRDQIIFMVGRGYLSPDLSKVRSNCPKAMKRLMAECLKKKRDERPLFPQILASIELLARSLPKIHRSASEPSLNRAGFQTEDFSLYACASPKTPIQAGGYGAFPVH
Chain of C-Raf kinase (SEQ. ID NO: 3) (P04049 307-648 Y340D/Y341D): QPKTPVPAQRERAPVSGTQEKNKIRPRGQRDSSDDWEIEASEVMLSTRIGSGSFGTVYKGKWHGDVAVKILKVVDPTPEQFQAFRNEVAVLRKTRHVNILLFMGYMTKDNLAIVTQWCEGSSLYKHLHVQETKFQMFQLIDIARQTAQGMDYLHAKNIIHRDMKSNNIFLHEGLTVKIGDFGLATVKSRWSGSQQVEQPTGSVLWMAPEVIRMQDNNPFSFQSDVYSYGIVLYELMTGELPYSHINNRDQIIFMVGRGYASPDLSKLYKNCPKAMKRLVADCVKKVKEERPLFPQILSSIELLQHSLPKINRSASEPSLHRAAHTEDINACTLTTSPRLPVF

As to `CNC(=O)c1cc(-c2cnnc(-c3cc(NC(=O)c4ccc(F)c(C(F)(F)F)c4)ccc3C)c2)ccn1` [Example 329], the concentration for half-maximal inhibition (IC50) in assay [1] is at most 100 nM; in assay [2], 500 to 1000 nM; in the assay with WM3928 cells, 1000 to 10000 nM; in the assay on A375 cells, 500 to 1000 nM.
Turning to `CC(=O)Nc1cc(-c2cccc(-c3cc(NC(=O)c4ccnc(C(F)(F)F)c4)ccc3C)c2)ncn1` [Example 30], the IC50 (in assay [1]; in assay [2]; in the assay with WM3928 cells; in the assay with A375 cells) was at most 100 nM in each case.
As for `Cc1cc(F)c(NC(=O)c2ccnc(C(C)(C)F)c2)cc1-c1ccnc(-c2ccnc(NC(=O)C3CC3)c2)c1` [Example 300], the concentration for half-maximal inhibition (IC50) (in assay [1]; in assay [2]; in the assay with WM3928 cells; in the assay on A375 cells) was at most 100 nM throughout.
Regarding `CNC(=O)c1cc(-c2cnnc(-c3cc(NC(=O)c4ccnc(C(F)F)c4)ccc3C)c2)ccn1` [Example 327], the IC50 in assay [1] is at most 100 nM; in assay [2], 100 to 500 nM; with WM3928 cells it was 1000 to 10000 nM; in the assay on A375 cells, 1000 to 10000 nM.
Regarding `Cc1ncc(NC(=O)c2cncc(C(F)F)c2)cc1-c1cccc(-c2cc(NC(=O)C3CC3)ncn2)c1` [Example 280], the IC50 in assay [1] is at most 100 nM; in assay [2], at most 100 nM; in the assay with WM3928 cells it was at most 100 nM; in the assay with A375 cells, 100 to 500 nM.
As to `CNC(=O)c1cc(-c2cnnc(-c3cc(NC(=O)c4ccnc(C(C)(C)C#N)c4)ccc3C)c2)ccn1` [Example 314], the IC50 in assay [1] lay within 100 to 500 nM; in assay [2], 100 to 500 nM; with WM3928 cells, 500 to 1000 nM; with A375 cells, 100 to 500 nM.
For the molecule `Cc1nc(-c2ccnc(NC(=O)C3CC3)c2)cc(-c2cc(NC(=O)c3ccnc(C4(C#N)CC4)c3)cnc2C)n1` [Example 286], the IC50 in assay [1] is at most 100 nM; in assay [2], at most 100 nM; with WM3928 cells, 100 to 500 nM; with A375 cells, 500 to 1000 nM.
As to `Cc1cc(F)c(NC(=O)c2ccnc(C(F)F)c2)cc1-c1ccnc(-c2ccnc(NC(=O)C3CC3)c2)c1` [Example 307], the IC50 in assay [1] is at most 100 nM; in assay [2] it was at most 100 nM; with WM3928 cells it was 100 to 500 nM; in the assay on A375 cells it was 500 to 1000 nM.
For the molecule `CNC(=O)c1cc(-c2cc(-c3cc(NC(=O)c4ccnc(C(F)(F)F)c4)ccc3C)cc(C3CC3)n2)ccn1` [Example 27], the IC50 in assay [1] is 100 to 500 nM; in assay [2] it was 100 to 500 nM; in the assay on WM3928 cells, at most 100 nM; in the assay with A375 cells, at most 100 nM.
On to `CNC(=O)c1cc(-c2cnnc(-c3cc(NC(=O)c4ccnc(C(C)(C)F)c4)ccc3C)c2)ccn1` [Example 325], for which the IC50 lay in the range of 100 to 500 nM in assay [1], 100 to 500 nM in assay [2], 500 to 1000 nM in the assay with WM3928 cells and 100 to 500 nM in the assay with A375 cells.
For `Cc1ccc(NC(=O)c2ccnc(C(C)(C)F)c2)cc1-c1cc(-c2ccnc(NC(=O)C3CC3)c2)cnn1` [Example 315], the IC50 (in assay [1]; in assay [2]; with WM3928 cells; in the assay with A375 cells) was at most 100 nM each time.
`CNC(=O)c1cc(-c2cnnc(-c3cc(NC(=O)c4ccnc(C(C)(C)OC)c4)ccc3C)c2)ccn1` [Example 328]: the IC50 in assay [1] lay within 100 to 500 nM; in assay [2] it was 500 to 1000 nM; in the assay with WM3928 cells, 1000 to 10000 nM; in the assay with A375 cells it was 100 to 500 nM.
Consider `Cc1ncc(NC(=O)c2ccnc(C3CC3)c2)cc1-c1nccc(-c2ccnc(NC(=O)C3CC3)c2)n1` [Example 295], for which the IC50 in assay [1] is at most 100 nM; in assay [2] it was at most 100 nM; in the assay with WM3928 cells, 100 to 500 nM; in the assay on A375 cells, 500 to 1000 nM.
Take `CNC(=O)c1cc(-c2cc(-c3cc(NC(=O)COCC4CC4)ccc3C)ccn2)ccn1` [Example 358]: the IC50 was at most 100 nM in assay [1], at most 100 nM in assay [2], 1000 to 10000 nM in the assay with WM3928 cells and 1000 to 10000 nM with A375 cells.
Regarding `COC(=O)Nc1cc(-c2cccc(-c3cc(NC(=O)c4ccnc(C5CC5)c4)cnc3C)c2)ccn1` [Example 288], the IC50 was at most 100 nM in assay [1], at most 100 nM in assay [2], 1000 to 10000 nM in the assay on WM3928 cells and 1000 to 10000 nM in the assay with A375 cells.
With `CNC(=O)c1cc(-c2nccc(-c3cc(NC(=O)c4ccnc(C(F)(F)F)c4)ccc3C)n2)ccn1` [Example 25], the IC50 in assay [1] was at most 100 nM; in assay [2], at most 100 nM; in the assay on WM3928 cells, 500 to 1000 nM; in the assay with A375 cells it was 500 to 1000 nM.
Regarding `Cc1ccc(NC(=O)c2ccnc(C(C)(C)C#N)c2)cc1-c1ccnc(-c2ccnc3c2CC(=O)N3)c1` [Example 23], the IC50 (in assay [1]; in assay [2]; in the assay on WM3928 cells; in the assay with A375 cells) was at most 100 nM each time.
For `Cc1ncc(NC(=O)C2CCOC(C)(C)C2)cc1-c1cccc(-c2cc(NC(=O)C3CC3)ncn2)c1` (stereo not drawn) [Example 348], the IC50 in assay [1] is at most 100 nM; in assay [2] it was 100 to 500 nM; in the assay on WM3928 cells it was 1000 to 10000 nM; with A375 cells, 1000 to 10000 nM.
`COC(=O)Nc1cc(-c2cnnc(-c3cc(NC(=O)COCC4CC4)ccc3C)c2)ccn1` [Example 360]: the IC50 in assay [1] was 100 to 500 nM; in assay [2], 500 to 1000 nM; in the assay with WM3928 cells, 1000 to 10000 nM; in the assay on A375 cells it was 1000 to 10000 nM.
Turning to `COC(=O)Nc1cc(-c2cnnc(-c3cc(NC(=O)c4ccnc(C(C)(C)C#N)c4)c(F)cc3C)c2)ccn1` [Example 299], the IC50 in assay [1] is at most 100 nM; in assay [2], at most 100 nM; in the assay on WM3928 cells, 500 to 1000 nM; with A375 cells, 100 to 500 nM.
In the case of `Cc1ccc(NC(=O)c2ccnc(C3CC3)c2)cc1-c1cc(-c2ccnc(NC(=O)C3CC3)c2)cnn1` [Example 331], the IC50 in assay [1] was at most 100 nM; in assay [2] it was at most 100 nM; in the assay with WM3928 cells, 500 to 1000 nM; in the assay on A375 cells, 100 to 500 nM.
As to `COC(=O)Nc1cc(-c2cnnc(-c3cc(NC(=O)c4ccnc(C(C)(C)C#N)c4)ccc3C)c2)ccn1` [Example 305], the IC50 in assay [1] is at most 100 nM; in assay [2], at most 100 nM; in the assay on WM3928 cells, 100 to 500 nM; in the assay on A375 cells, 100 to 500 nM.
On to `Cc1nc(-c2ccnc(NC(=O)C3CC3)c2)cc(-c2cc(NC(=O)c3ccnc(C4CC4)c3)cnc2C)n1` [Example 287], for which the IC50 in assay [1] is at most 100 nM; in assay [2], at most 100 nM; in the assay with WM3928 cells, 100 to 500 nM; with A375 cells it was 1000 to 10000 nM.
Take `Cc1ccc(NC(=O)c2ccnc(C(C)(C)C#N)c2)cc1-c1nccc(-c2ccnc3c2CC(=O)N3)n1` [Example 22]: the IC50 was at most 100 nM in assay [1], at most 100 nM in assay [2], at most 100 nM in the assay on WM3928 cells and 1000 to 10000 nM in the assay on A375 cells.
With `CNC(=O)c1cc(-c2cnnc(-c3cc(NC(=O)c4ccnc(C(F)(F)F)c4)ccc3C)c2)ccn1` [Example 364], the IC50 in assay [1] lay in the range of 100 to 500 nM; in assay [2], 100 to 500 nM; in the assay with WM3928 cells, 1000 to 10000 nM; in the assay with A375 cells, 1000 to 10000 nM.
With `COC(=O)Nc1cc(-c2nccc(-c3cc(NC(=O)c4ccnc(C(C)(C)C#N)c4)c(F)cc3C)n2)ccn1` [Example 303], the IC50 (in assay [1]; in assay [2]; with WM3928 cells; in the assay with A375 cells) was at most 100 nM in each case.
`Cc1ccc(NC(=O)C2CCOC(C(C)C)C2)cc1-c1cc(-c2ccnc(NC(=O)C3CC3)c2)cnn1` (stereo not drawn) [Example 370]: the IC50 is at most 100 nM in assay [1], at most 100 nM in assay [2], 1000 to 10000 nM in the assay on WM3928 cells and 1000 to 10000 nM in the assay on A375 cells.
For the molecule `Cc1ncc(NC(=O)c2ccnc(C3CC3)c2)cc1-c1cccc(-c2cc(NC(=O)C3CC3)ncn2)c1` [Example 291], the IC50 in assay [1] is at most 100 nM; in assay [2] it was at most 100 nM; in the assay with WM3928 cells, at most 100 nM; with A375 cells, 100 to 500 nM.
`CC(=O)Nc1cc(-c2nccc(-c3cc(NC(=O)c4ccnc(C(F)(F)F)c4)ccc3C)n2)ccn1` [Example 24]: the IC50 (in assay [1]; in assay [2]; in the assay on WM3928 cells; in the assay on A375 cells) was at most 100 nM in each case.
On to `Cc1ncc(NC(=O)c2ccnc(C(C)(C)C#N)c2)cc1-c1cccc(-c2ccnc(C(N)=O)c2)c1` [Example 301], for which the concentration for half-maximal inhibition (IC50) was at most 100 nM in assay [1], at most 100 nM in assay [2], 100 to 500 nM with WM3928 cells and 100 to 500 nM with A375 cells.
With `Cc1ccc(NC(=O)c2cnnc(C3CC3)c2)cc1-c1cccc(-c2cc(NC(=O)C3CC3)ncn2)c1` [Example 284], the 50% inhibitory concentration (IC50) (in assay [1]; in assay [2]; in the assay with WM3928 cells; in the assay on A375 cells) was at most 100 nM throughout.
For the molecule `COC(=O)Nc1nccc(-c2cccc(-c3cc(NC(=O)c4ccnc(C(C)(C)C#N)c4)cnc3C)c2)n1` [Example 290], the IC50 in assay [1] is 100 to 500 nM; in assay [2], 500 to 1000 nM; in the assay with WM3928 cells, 500 to 1000 nM; with A375 cells, 1000 to 10000 nM.
As to `COC(=O)Nc1cc(-c2cc(-c3cc(NC(=O)c4ccnc(C(F)(F)F)c4)cnc3C)ccn2)ccn1` [Example 312], the IC50 was at most 100 nM in assay [1], at most 100 nM in assay [2], 1000 to 10000 nM with WM3928 cells and 100 to 500 nM with A375 cells.
